System: rat
Experiment: measurement of the cauda equina blood flow and the blood pressure in urethane-anesthetized rat
Type: in vivo
Settings: continuous infusion through caudal vein for 30 minutes, dose not given; for the increase rate of the cauda equina blood flow: observed until 30 minutes after, laser-Doppler flowmetry; for decrease of the blood pressure: systemic blood pressure from left carotid artery
Experimental: The common procedure based on the fundamental biological means was used as all procedures. Furthermore, the measuring method of the present invention was modified to improve the accuracy and/or sensitivity of measurement for evaluating the compound of the present invention. The detailed experimental method was as follows. • (i) The measurement of the cauda equina blood flow and the blood pressure Experiment: 1.5g/kg of urethane was administered intraperitoneally to the rat to be anesthetized, and the catheter, which is for measurement of blood pressure and ventricular rate, was placed in left carotid artery in supine position. The rat was reversed to prone position and the lumbar part was incised in the median line. The laminectomy was given to the fifth lumbar vertebra and the spinal cord (cauda equina) was exposed. The cauda equina blood flow was measured by the laser-Doppler flowmetry (OMEGAFLD FLO-NI and ADVANCE LASER FLOWMETER ALF21N, OMEGA WAVE Inc.) through a noncontact probe (ST-N type, OMEGA WAVE Inc.) and recorded with LINEARCORDER (Graphtech). The systemic blood pressure and the ventricular rate were measured from a left carotid artery with amplifier for the pressure measurement (GOULD) through a pressure transducer and recorded with LINEARCORDER (Graphtech).
After confirming each parameter of blood pressure, ventricular rate and blood flow was stabilized, the test compound was administrated by continuous infusion through the winged needle placed in caudal vein for 30 minutes. It observed until 30 minutes after the administration and the increase rate of the cauda equina blood flow was calculated. The increase rate of the cauda equina blood flow (%)=(B−A)/A×100 • A: the cauda equina blood flow before the administration of the test compound • B: the cauda equina blood flow after the administration of the test compound

Row | SMILES | the increase rate of the cauda equina blood flow [%] | decrease of the blood pressure [mmHg]
1 | O=C(O)c1csc(SCCN2C(=O)OC[C@@H]2/C=C/[C@@H](O)C2(CCCCF)CCC2)n1 [compound 8-1, 2-{[2-((4S)-4-{(1E,3R)-3-[1-(4-fluorobutyl)cyclobutyl]-3-hydroxy-1-propenyl}-2-oxo-1,3-oxazolidin-3-yl)ethyl]sulfanyl}-1,3-thiazole-4-carboxylic acid] | 35 | 6
2 | CC(O)(C/C=C/[C@H]1CCC(=O)[C@@H]1CCSc1nc(C(=O)O)cs1)CC1CCCCC1 (stereo partly drawn) [compound 53, 2-[(2-{(1R,2R)-2-[(1E)-5-cyclohexyl-4-hydroxy-4-methyl-1-pentenyl]-5-oxocyclopentyl}ethyl)sulfanyl]-1,3-thiazole-4-carboxylic acid] | 31 | 10
